Assay results: PMC7998250, “Temperate Zone Plant Natural Products—A Novel Resource for Activity against Tropical Parasitic Diseases” (Pharmaceuticals, 2021)
Where two headings read alike, the source gives them in different places.

How the values were obtained:
[1] = system: T. brucei bloodstream form; experiment: Initial screen, T. brucei bloodstream form, Alamar Blue; format: cell-based, Trypanosoma brucei brucei; details: for initial hit against T. brucei / inhibition of growth at 2 µM: 2 μM; for initial hit against T. brucei: growth reduced by ≥50%; for activity at 2 µM / inhibition of growth at 2 µM: Trypanosoma brucei; for activity at 2 µM: initial screen; for inhibition of growth at 2 µM: x = initial hit, read-out: initial hit T.b
Procedure: (§1) 634 compounds from the PhytoQuest Phytopure temperate plant natural product library were screened for growth inhibitory activity against L. mexicana axenic amastigotes, T. brucei bloodstream form, intraerythrocytic asexual P. falciparum (at 2 μM) and T. evansi bloodstream form parasites (at 1 μM). […] Our initial hits were defined as reducing growth of the parasite by ≥50%.
(§2) L. mexicana strain MNYC/BZ/62/M379 and L. donovani strain LdBOB (a clonal line from strain MHOM/SD/62/1S-CL2) were maintained in vitro in the procyclic promastigote stage. Parasites were cultivated at 26 °C in Schneider’s medium (Gibco) pH 7.0 containing 10% FBS, 100 U/mL penicillin (Lonza) and 100 μg/mL streptomycin (Lonza) as previously described. Differentiation into axenic amastigotes was performed as described previously. Briefly, axenic amastigotes were cultivated at 32 °C in Schneider’s medium pH 5.5 containing 10% FBS, 100 U/mL penicillin (Lonza) and 100 μg/mL streptomycin (Lonza). Bloodstream form T. brucei brucei strain Lister 427 and T. evansi strain Antat 3/3 [59] were maintained in vitro at 37 °C with 5% (v/v) CO2 in HMI-11 medium supplemented with 10% FBS, as described elsewhere. Intraerythrocytic cultures of P. falciparum Dd2^Luc strain [62] were maintained at 37 °C in a 1% O2:3% CO2:96% N2 atmosphere in RPMI-1640 containing 37.5 mM HEPES, 5 mM NaOH, 10 mM D-glucose, 2 mM L-glutamine, 100 μM hypoxanthine, […] gentamicin sulfate, 5% human serum and 5% albumax-II and 2% haematocrit erythrocytes. When required, cultures were synchronised to ring stages using the sorbitol lysis method. Preliminary cytotoxicity screening was assessed using HepG2 cells. These cells were maintained in vitro at 37 °C with 5% (v/v) CO2 in DMEM (Sigma) pH 7 supplemented with 10% FBS, 100 U/mL penicillin (Lonza) and 100 μg/mL streptomycin (Lonza), as previously described. The human monocyte cell line THP-1 [68] was maintained in vitro by culturing at 37 °C with 5% (v/v) CO2 in complete RPMI medium (Dutch modified RPMI-1640 (Gibco) containing 10% FBS and 2 mM L-glutamine (Gibco)). Differentiation of THP-1 cells into macrophages was performed by seeding 2.5 × 10^5 cells/mL in complete RPMI media, supplemented with 20 ng/mL phorbol 12-myristate 13-acetate (PMA), followed by incubation at 37 °C with 5% (v/v) CO2 for 24 h.
(§3) The library was provided as 634 non-polar compounds (1 mg/mL in DMSO). Initial screening was performed in a 96-well plate with 200 μL of parasite culture. The initial screen used each compound at a final concentration of 2 μM for L. mexicana axenic amastigotes, T. brucei and P. falciparum, and at 1 μM for T. evansi. L. mexicana axenic amastigotes were plated at 1 × 10^6 cells/mL, incubated for 72 h, and the Alamar Blue assay was used to assess parasite growth. Each compound was tested in triplicate, with two biological replicates (n = 6). T. brucei and T. evansi were plated at 1×10^5 cells/mL for 48 h, and the Alamar Blue assay was used to assess parasite growth. Each compound was tested in triplicate with two biological replicates (n = 6). Intraerythrocytic P. falciparum in the trophozoite stage were seeded at 0.5% parasitaemia and 2% haematocrit for 48 h, and the Malaria SYBR-Green I fluorescence assay was used to assess parasite growth. Each compound was tested in duplicate with two biological replicates (n = 4). Negative controls comprised an equivalent volume of DMSO (equivalent of 1% v/v) to normalise the growth data. Data points >100% growth and <0% growth were tabulated as 100% and 0%, respectively. Some compounds were not tested in all parasite lines as there was insufficient material remaining.

T. evansi = experiment: Concentration-response EC50, T. evansi; format: cell-based; details: Trypanosoma evansi; bloodstream form, 48 h; read-out: T. evansi EC50
Procedure: (§4) EC50 values were determined by serial two-fold dilution of each compound in 96 well plates. Culture conditions and viability assays were as stated for the initial screen, with some exceptions. L. mexicana and L. donovani axenic amastigotes were seeded at 2 × 10^6 cell/s mL, T. brucei and T. evansi were seeded at 2 × 10^5 cells/mL. For cytotoxicity studies, HepG2 cells were seeded at 1 × 10^5 cells/mL, incubated for 48 h and viability was assessed using the Alamar Blue assay [66, 67]. […] Normalised growth and viability data (compared to untreated controls) were plotted against Log10 concentration to estimate EC50 in GraphPad (Prism v6).

in vitro = details: human, pH 7, HepG2 CC50
Description: Initial hits from the parasite panel screen were taken forward in log concentration versus normalised response assays to estimate the half maximal effective concentration (EC50) in hit species as well as the half maximal cytotoxic concentrations (CC50) in the human hepatoma cell line HepG2 as a preliminary test for selectivity. Using CC50/EC50 to define the selectivity index (SI), the selectivity for each compound in a defined species compared to a human cell line was estimated and compared to the EC50 (Figure 3).
as §2
EC50 values were determined by serial two-fold dilution of each compound in 96 well plates. Culture conditions and viability assays were as stated for the initial screen, with some exceptions. L. mexicana and L. donovani axenic amastigotes were seeded at 2 × 10^6 cell/s mL, T. brucei and T. evansi were seeded at 2 × 10^5 cells/mL. For cytotoxicity studies, HepG2 cells were seeded at 1 × 10^5 cells/mL, incubated for 48 h and viability was assessed using the Alamar Blue assay. Differentiated THP-1 cells were seeded at 5 × 10^4 cells/mL, incubated for 48 h, and viability was assessed by the Alamar Blue assay. Normalised growth and viability data (compared to untreated controls) were plotted against Log10 concentration to estimate EC50 in GraphPad (Prism v6). Bioluminescence relative rate of kill assays in asexual intraerythrocytic P. falciparum Dd2^Luc were carried out as described.

[2] = system: L. mexicana axenic amastigotes; experiment: Initial screen, L. mexicana axenic amastigotes, Alamar Blue; format: cell-based, Leishmania mexicana; details: for activity at 2 µM / inhibition of growth at 2 µM: Leishmania mexicana; for initial hit against L. mexicana / inhibition of growth at 2 µM: 2 μM; for initial hit against L. mexicana: growth inhibited by ≥80%; for inhibition of growth at 2 µM: x = initial hit, read-out: initial hit L.m
Procedure: as §1, with “≥50%. […]” for “≥50%.”
as §3, with “The PhytoQuest Phytopure library is a commercially available collection of purified compounds isolated predominantly from temperate zone plants, with structures confirmed by NMR and mass spectrometry. The library” for “The library”

[3] = system: T. evansi bloodstream form; experiment: Initial screen, T. evansi bloodstream form, Alamar Blue; format: cell-based, Trypanosoma evansi; details: Trypanosoma evansi; for activity at 1 µM: initial screen; for inhibition of growth at 1 µM: x = initial hit, read-out: initial hit T.e
Procedure: as §1, §2, §3

[4] = system: P. falciparum Dd2Luc intraerythrocytic trophozoites; experiment: Initial screen, intraerythrocytic P. falciparum, Malaria SYBR-Green I fluorescence assay; format: cell-based, Plasmodium falciparum; details: Plasmodium falciparum, 48 h
Procedure: as §1, with “≥50%. […]” for “≥50%.”
as §3, with “The PhytoQuest Phytopure library is a commercially available collection of purified compounds isolated predominantly from temperate zone plants, with structures confirmed by NMR and mass spectrometry. The library” for “The library”

[5] = Cytotoxicity CC50, differentiated THP-1, Alamar Blue; format: cell-based, human; details: human, THP-1 cells differentiated into macrophages with PMA, differentiated THP-1, 48 h; read-out: THP1 CC50
Description: The four lanosterone-like sterols derived from the Noble Fir Abies procera (700022, 700107, 700136) and the Grand Fir Abies grandis (700240) were the only initial compounds taken forward for L. mexicana due to their nanomolar activity and apparent low cytotoxicity (Figure 3a). […] Understanding the impact of the ring-opened lactone head group in this compound compared to the other three warrants further analysis in exploring their structure-activity relationships. These four sterols were also tested for growth inhibitory activity against L. donovani axenic amastigotes. […] As Leishmania spp. amastigotes typically reside with macrophages, further cytotoxicity assays with these sterols were performed against an activated monocyte cell line (THP-1) (Figure 4b). […]

[6] = system: L. mexicana axenic amastigotes; experiment: Concentration-response EC50, L. mexicana axenic amastigotes (WT); format: cell-based, Leishmania mexicana; details: Leishmania mexicana, 72 h, read-out: L. mexicana EC50, axenic amastigotes, 72 h
Procedure: as §4

T. brucei = experiment: Concentration-response EC50, T. brucei; format: cell-based, Trypanosoma brucei brucei; details: Trypanosoma brucei, 48 h, bloodstream form, 48 h; read-out: T. brucei EC50
Procedure: as §4

[7] = mean % growth compared to a normalised control with same concentration of DMSO solvent, read-out: % growth T. b. brucei
[8] = read-out: % growth L. mexicana, mean % growth compared to a normalised control with same concentration of DMSO solvent, initial screen
[9] = mean % growth compared to a normalised control with same concentration of DMSO solvent, read-out: % growth T. evansi
[10] = read-out: %growth P. falciparum, mean % growth compared to a normalised control with same concentration of DMSO solvent, initial screen
[11] = compared to a normalised control with same concentration of DMSO solvent, read-out: mean % growth, T. b. brucei
[12] = read-out: mean % growth, L. mexicana, initial screen, compared to a normalised control with same concentration of DMSO solvent
[13] = compared to a normalised control with same concentration of DMSO solvent, read-out: mean % growth, T. evansi
[14] = read-out: mean % growth, P. falciparum, initial screen, compared to a normalised control with same concentration of DMSO solvent

Compound | initial hit against T. brucei [1] | activity at 2 µM [1, 7] [%] | inhibition of growth at 2 µM [1] [%] | EC50 (T. evansi) [nM] | CC50 at 48 h (in vitro) [nM] | activity at 2 µM [2, 8] [%] | activity at 1 µM [3, 9] [%] | inhibition of growth at 1 µM [3] [%] | activity at 2 µM [4, 10] [%] | activity at 2 µM [1, 11] [%] | activity at 2 µM [2, 12] [%] | activity at 1 µM [3, 13] [%] | activity at 2 µM [4, 14] [%] | CC50 at 48 h [5] [nM] | initial hit against L. mexicana [2] | inhibition of growth at 2 µM [2] [%] | inhibition of growth at 2 µM ([4]; read-out: initial hit P.f) [%] | EC50 [6] [nM] | EC50 (T. brucei) [nM]
C/C=C(\C)C(=O)OC1C(C)OC(Oc2c(C(C)C)ccc(C)c2O)C(O)C1OC1OC(C)C(OC(=O)C(C)CC)C(O)C1O (stereo not drawn) [Compound 700004] | initial hits | 14 | > 50 | 357 | 16000 | 48.1 | 0.7 | > 50 | 101 | – | – | – | – | – | – | – | – | – | –
COc1ccc(CC2COC(=O)C2Cc2ccc(OC)c(O)c2O)cc1OC (stereo not drawn) [Compound 700144] | – | 69.4 | – | 451 | > 100000 | 83.6 | 35.8 | > 50 | 82.6 | – | – | – | – | – | – | – | – | – | –
C/C(=C\C(=O)O)C(O)CC12CCCCC1C(C)(C(=O)OC(O)O)CCC2 (stereo not drawn) [Compound 700513] | – | – | – | 756 | > 100000 | – | – | > 50 | – | 104 | 56.5 | 50 | 97 | – | – | – | – | – | –
C=C1C(=O)OC2/C=C(/C)CC/C=C(/C)CC(OC(=O)/C(C)=C\CO)C12 (stereo not drawn) [Compound 700756] | – | – | – | – | – | – | – | – | – | 53.7 | 2.9 | 98.4 | 44 | 2800 | initial hits | > 80 | > 50 | 1000 | –
CC#CC#CC(=O)c1cccc(OC)c1C(=O)OC [Compound 701044] | – | – | – | – | – | – | – | – | – | 79.3 | -4.5 | 90.3 | 92.6 | 2200 | initial hits | > 80 | – | 330 | –
CC(=O)OC1C(COC(=O)/C=C/c2ccc(O)cc2)OC(Oc2c(-c3ccc(O)cc3)oc3cc(O)cc(O)c3c2=O)C(OC(=O)/C=C/c2ccc(O)cc2)C1O (stereo not drawn) [Compound 701088] | – | – | – | 816 | 54000 | – | – | > 50 | – | 63 | 81.1 | 42.7 | 99.9 | – | – | – | – | – | –
C=C(CC)C(=O)OC1CC(=C)C2CC(O)C(=C)C2C2OC(=O)C(=C)C12 (stereo not drawn) [Compound 701212] | – | – | – | – | – | – | – | – | – | 77.1 | 1.5 | 86.5 | 84.7 | 520 | initial hits | > 80 | – | 330 | –
CC#CC#CCc1cccc(O)c1 [Compound 701241] | initial hits | – | > 50 | – | 670 | – | – | – | – | -1.9 | 15 | – | 96.5 | 270 | initial hits | > 80 | – | 330 | 2200
